Measurements taken from PubChem BioAssay AID743413 (Broad Institute, 2014).
Activity calls are given as the source filed them.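 How the source made its calls: active means compounds lowering cell ATP signal with a fitted AC50 at or below twice their top tested dose; inconclusive means flat curve between 30% and 70% loss, or poor fit; inactive means the rest.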

Test system: not listed separately
Test: toxicity toward A549 lung cells – cell-based, plate reader, dry powder, set 11, cytotoxicity control, dose response (AID 743413)
Details: A549 viability, CellTiter-Glo ATP luminescence, 72 h; at 12 µM (top of the series)

Which activity change, negative = cytotoxicity does the source give for `COc1cc(CNCCCN2CCOCC2)ccc1OCC(=O)Nc1cccc(C(F)(F)F)c1` here?
Its activity change, negative = cytotoxicity is 7.4% (inactive).

With `COCCN(Cc1ccco1)C(=O)CSc1c2c(nc3cc(Cl)ccc13)CCCC2` as the compound, how does the activity change, negative = cytotoxicity read?
Its activity change, negative = cytotoxicity is -3.68% (inactive).

Same assay, conditions: A549 viability, CellTiter-Glo ATP luminescence, 72 h; at 26 µM (top of the series)

Which activity change, negative = cytotoxicity does the source give for `COc1ccc(OCCNC(=O)c2ccccc2OCC(=O)Nc2ccc(NC(C)=O)cc2)cc1` here?
Its activity change, negative = cytotoxicity is -14.7% (inactive).

With `O=C(CSc1c2c(nc3ccc(Cl)cc13)CCCC2)NCC1(c2ccccc2)CCCC1` as the compound, how does the activity change, negative = cytotoxicity read?
The activity change, negative = cytotoxicity was -1.8% (inactive).

With `O=C(COc1ccc(C(=O)N2CCC2)cc1)Nc1cccc(C(F)(F)F)c1` as the compound, how does the activity change, negative = cytotoxicity read?
Its activity change, negative = cytotoxicity is 2.9% (inactive).

For `COc1ccc(N(Cc2cccs2)C(=O)COc2ccccc2C(=O)Nc2ccccc2)cc1`, which activity change, negative = cytotoxicity is on record?
Its activity change, negative = cytotoxicity is -14% (inactive).

With `CN(CCNC(=O)CSc1c2c(nc3ccc(Cl)cc13)CCCC2)Cc1ccccc1` as the compound, how does the activity change, negative = cytotoxicity read?
Its activity change, negative = cytotoxicity is -8.03% (inactive).

Which activity change, negative = cytotoxicity does the source give for `CN(C(=O)COc1ccc(Cl)cc1C(N)=O)c1ccccc1` here?
Its activity change, negative = cytotoxicity is 2.07% (inactive).

Which activity change, negative = cytotoxicity does the source give for `CCOC(=O)C1CCN(C(=O)c2ccc(OCC(=O)N3CCOCC3)c(OC)c2)CC1` here?
Its activity change, negative = cytotoxicity is -3.29% (inactive).

Which activity change, negative = cytotoxicity does the source give for `CCOc1ccc(NC(=O)COc2ccc(C(=O)N3CCC(C(N)=O)CC3)cc2OC)cc1` here?
Its activity change, negative = cytotoxicity is -3.38% (inactive).

With `O=C(COc1ccccc1C(=O)NCCOc1ccc(Cl)cc1)Nc1cccc(Cl)c1` as the compound, how does the activity change, negative = cytotoxicity read?
The activity change, negative = cytotoxicity was -15.3% (inactive).

For `CCCCOc1ccc(NC(=O)COc2ccccc2C(=O)NCCOc2ccccc2)cc1`, which activity change, negative = cytotoxicity is on record?
Its activity change, negative = cytotoxicity is -9.94% (inactive).

For `CN(C)c1ccc(NC(=O)COc2ccccc2C(=O)N2CCOCC2)cc1`, which activity change, negative = cytotoxicity is on record?
Its activity change, negative = cytotoxicity is -1.46% (inactive).

Which activity change, negative = cytotoxicity does the source give for `CN(C(=O)COc1ccccc1C(N)=O)c1ccccc1` here?
The activity change, negative = cytotoxicity was -1.13% (inactive).

With `O=C(COc1ccc(C(=O)N2CCN(C(=O)C3CC3)CC2)cc1)Nc1cccc(C(F)(F)F)c1` as the compound, how does the activity change, negative = cytotoxicity read?
The activity change, negative = cytotoxicity was -1.09% (inactive).

For `CCOC(=O)N1CCC(NC(=O)CSc2c3c(nc4ccc(Cl)cc24)CCCC3)CC1`, which activity change, negative = cytotoxicity is on record?
Its activity change, negative = cytotoxicity is -13.1% (inactive).

Which activity change, negative = cytotoxicity does the source give for `Cc1ccc(NC(=O)COc2ccccc2C(=O)NCCN(C)C)cc1` here?
Its activity change, negative = cytotoxicity is -4.77% (inactive).

With `COc1cc(C(=O)NCCCN(C)C)ccc1OCC(=O)Nc1cccc(C(F)(F)F)c1` as the compound, how does the activity change, negative = cytotoxicity read?
Its activity change, negative = cytotoxicity is -6.69% (inactive).

With `O=C(COc1ccccc1C(=O)NCc1ccccc1)Nc1ccccc1` as the compound, how does the activity change, negative = cytotoxicity read?
The activity change, negative = cytotoxicity was -5.99% (inactive).

With `Cn1cc(SCC(=O)NCc2ccco2)c2ccccc21` as the compound, how does the activity change, negative = cytotoxicity read?
The activity change, negative = cytotoxicity was -0.441% (inactive).

With `O=C(O)CSc1c2c(nc3cc(C(=O)NCc4cccs4)ccc13)CCCC2` as the compound, how does the activity change, negative = cytotoxicity read?
The activity change, negative = cytotoxicity was -2.24% (inactive).

Which activity change, negative = cytotoxicity does the source give for `CN(CCOc1ccccc1)C(=O)c1ccc(OCC(=O)Nc2cccc(C(F)(F)F)c2)cc1` here?
The activity change, negative = cytotoxicity was 0.912% (inactive).

Which activity change, negative = cytotoxicity does the source give for `COC(=O)CCCN(C)C(=O)c1ccc(OCC(=O)Nc2cccc(OC)c2)cc1` here?
Its activity change, negative = cytotoxicity is -0.651% (inactive).

Which activity change, negative = cytotoxicity does the source give for `O=C(COc1ccc(C(=O)NC2CCCCC2)cc1)Nc1cccc(C(F)(F)F)c1` here?
The activity change, negative = cytotoxicity was -0.017% (inactive).

For `CCN(CC)C(=O)CSc1c2c(nc3ccc(Cl)cc13)CCCC2`, which activity change, negative = cytotoxicity is on record?
Its activity change, negative = cytotoxicity is -10.9% (inactive).

Which activity change, negative = cytotoxicity does the source give for `O=C(CSc1cccc2cccnc12)NCc1ccco1` here?
The activity change, negative = cytotoxicity was -1.12% (inactive).

For `CC(Sc1c2c(nc3ccc(Cl)cc13)CCCC2)C(=O)NCc1ccco1` (stereo unspecified), which activity change, negative = cytotoxicity is on record?
Its activity change, negative = cytotoxicity is -8.08% (inactive).

Which activity change, negative = cytotoxicity does the source give for `CCOC(=O)C1CCN(C(=O)c2ccc(OCC(=O)Nc3ccc(OCC)cc3)c(OC)c2)CC1` here?
The activity change, negative = cytotoxicity was 5.86% (inactive).

Which activity change, negative = cytotoxicity does the source give for `CN(C(=O)COc1ccccc1C(=O)Nc1ccccc1)c1ccccc1` here?
Its activity change, negative = cytotoxicity is -12% (inactive).

With `Cc1ccc2nc(Cl)cc(SCC(=O)NCc3ccco3)c2c1` as the compound, how does the activity change, negative = cytotoxicity read?
Its activity change, negative = cytotoxicity is -7.2% (inactive).

With `CC1(C)CC(NC(=O)c2ccc(OCC(=O)Nc3cccc(C(F)(F)F)c3)cc2)CC(C)(C)N1` as the compound, how does the activity change, negative = cytotoxicity read?
The activity change, negative = cytotoxicity was -14.3% (inactive).

With `O=C(CSc1c2c(nc3ccc(Cl)cc13)CCCC2)NC1CCCC1` as the compound, how does the activity change, negative = cytotoxicity read?
Its activity change, negative = cytotoxicity is -25.2% (inactive).

For `O=C(CSc1c2c(nc3ccc(Cl)cc13)CCCC2)N1CCNC1=O`, which activity change, negative = cytotoxicity is on record?
The activity change, negative = cytotoxicity was -13.8% (inactive).

For `Cn1c(=O)cc(SCC(=O)NCc2ccco2)c2ccccc21`, which activity change, negative = cytotoxicity is on record?
Its activity change, negative = cytotoxicity is 5.32% (inactive).

For `O=C(COc1ccc(C(=O)NCC2CCCO2)cc1)Nc1cccc(C(F)(F)F)c1` (stereo unspecified), which activity change, negative = cytotoxicity is on record?
The activity change, negative = cytotoxicity was 1.08% (inactive).

With `NC(=O)C1CCN(C(=O)c2ccc(OCC(=O)Nc3cccc(C(F)(F)F)c3)cc2)CC1` as the compound, how does the activity change, negative = cytotoxicity read?
The activity change, negative = cytotoxicity was 8.43% (inactive).

Which activity change, negative = cytotoxicity does the source give for `O=C(CSc1ccc2ccccc2n1)NCc1ccco1` here?
Its activity change, negative = cytotoxicity is -6.75% (inactive).

Test system: A549 viability, CellTiter-Glo ATP luminescence, 72 h
Test: as above
Details: not given

With `O=C(CSc1c2c(nc3ccc(Cl)cc13)CCCC2)NC1CC1` as the compound, how does the AC50 read?
Its AC50 is > 52 µM (inactive).

Which AC50 does the source give for `O=C(CSc1c2c(nc3cc(Cl)ccc13)CCCC2)N(Cc1ccco1)C1CCCC1` here?
Its AC50 is > 52 µM (inactive).

With `Cc1ccc(CNC(=O)CSc2c3c(nc4ccc(Cl)cc24)CCCC3)cc1` as the compound, how does the AC50 read?
The AC50 was > 52 µM (inactive).

With `Cc1cccc(CCNC(=O)CSc2c3c(nc4ccc(Cl)cc24)CCCC3)c1` as the compound, how does the AC50 read?
Its AC50 is > 52 µM (inactive).

For `COc1ccc(CNC(=O)CSc2c3c(nc4ccc(Cl)cc24)CCCC3)cc1`, which AC50 is on record?
The AC50 was > 52 µM (inactive).

Which AC50 does the source give for `O=C(CSc1c2c(nc3ccc(Cl)cc13)CCCC2)Nc1ccccc1` here?
The AC50 was > 52 µM (inactive).

With `CCN1CCCC1CNC(=O)CSc1c2c(nc3ccc(Cl)cc13)CCCC2` (stereo unspecified) as the compound, how does the AC50 read?
The AC50 was 16.2 µM.

With `O=C(CSc1c2c(nc3ccc(Cl)cc13)CCCC2)NCCN1CCN(Cc2ccccc2)CC1` as the compound, how does the AC50 read?
Its AC50 is 26.7 µM.

For `O=C(CSc1c2c(nc3ccc(Cl)cc13)CCCC2)NCc1ccc2c(c1)OCO2`, which AC50 is on record?
Its AC50 is > 52 µM (inactive).

For `O=C(CSc1c2c(nc3ccc(Cl)cc13)CCCC2)NCCCc1ccccc1`, which AC50 is on record?
Its AC50 is > 52 µM (inactive).

For `O=C(CSc1c2c(nc3ccc(Cl)cc13)CCCC2)N1CCCCC1`, which AC50 is on record?
The AC50 was > 52 µM (inactive).

With `COc1ccc(NC(=O)CSc2c3c(nc4ccc(Cl)cc24)CCCC3)cc1` as the compound, how does the AC50 read?
The AC50 was > 52 µM (inactive).

Which AC50 does the source give for `O=C(CSc1c2c(nc3ccc(Cl)cc13)CCCC2)N1CCC(N2CCCCC2)CC1` here?
The AC50 was 26.6 µM.

With `O=C(CSc1c2c(nc3ccc(Cl)cc13)CCCC2)NCc1cccs1` as the compound, how does the AC50 read?
The AC50 was > 52 µM (inactive).
